This is an account of results in paper doi:10.1101/2024.07.21.604522v1 (biorxiv, 2024).

SMILES strings stand for the structures.

The assay addresses T1, human ChaC1 (ChaC1p) (Homo sapiens, UniProt Q9BUX1).
T1 sequence (Q9BUX1 1-222): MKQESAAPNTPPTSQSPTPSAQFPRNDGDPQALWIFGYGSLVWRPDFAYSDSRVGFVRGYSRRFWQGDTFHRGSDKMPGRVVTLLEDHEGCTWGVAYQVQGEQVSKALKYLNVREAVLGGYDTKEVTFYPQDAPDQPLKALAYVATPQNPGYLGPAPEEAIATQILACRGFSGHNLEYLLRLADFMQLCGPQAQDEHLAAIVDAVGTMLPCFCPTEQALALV
The experiment in a line: ChaC1p-Dug1p coupled assay, cysteine by ninhydrin. The format is biochemical.

Turning to `O=C1C=CC(=O)c2c(O)cccc21` [juglone], half-maximal inhibition (IC50) was put at 8.7 µM.

In general, IC50 refers to the concentration needed to halve the response being measured. A high value points to weaker potency in that assay.
